Experimental data as given in US20100016388A1, “Salts of a Selective Beta-2 Andrenoceptor Agonist” (priority 2007, published 2010).
Counter-ions that a name gives are not always drawn.

Molecular target: T1, Adrenergic β2 (Homo sapiens, UniProt P07550)
T1 construct: Adherent H292 cells were removed from tissue culture flasks; endogenous in cells; host or cells: H292 cells
Assay: Adrenergic β2 mediated cAMP production in H292 cells (AlphaScreen)
Format: cell-based
Conditions: Intrinsic Activity as a fraction relative to the maximum activity determined for formoterol
Protocol: Adrenergic β2 Mediated cAMP Production
H292 cells were grown in 225 cm2 flasks incubator at 37° C., 5% CO2 in RPMI medium containing, 10% (v/v) FBS (foetal bovine serum) and 2 mM L-glutamine.
Adherent H292 cells were removed from tissue culture flasks by treatment with Accutase™ cell detachment solution for 15 minutes. Flasks were incubated for 15 minutes in a humidified incubator at 37° C., 5% CO2. Detached cells were re-suspended in RPMI media (containing 10% (v/v) FBS and 2 mM L-glutamine) at 0.05×10^6 cells per mL. 5000 cells in 100 μL were added to each well of a tissue-culture-treated 96-well plate and the cells incubated overnight in a humidified incubator at 37° C., 5% CO2. The culture media was removed and cells were washed twice with 100 μL assay buffer and replaced with 50 μL assay buffer (HBSS solution containing 10 mM HEPES pH7.4 and 5 mM glucose). […]
The concentration of cAMP (cyclic adenosine monophosphate) in the cell lysate was determined using AlphaScreen™ methodology. […] The AlphaScreen™ signal was measured using an EnVision spectrophotometer (Perkin-Elmer Inc.) with the recommended manufacturer's settings. cAMP concentrations were determined by reference to a calibration curve determined in the same experiment using standard cAMP concentrations. […] Intrinsic Activity was expressed as a fraction relative to the maximum activity determined for formoterol in each experiment.

T1 sequence (P07550 whole entry): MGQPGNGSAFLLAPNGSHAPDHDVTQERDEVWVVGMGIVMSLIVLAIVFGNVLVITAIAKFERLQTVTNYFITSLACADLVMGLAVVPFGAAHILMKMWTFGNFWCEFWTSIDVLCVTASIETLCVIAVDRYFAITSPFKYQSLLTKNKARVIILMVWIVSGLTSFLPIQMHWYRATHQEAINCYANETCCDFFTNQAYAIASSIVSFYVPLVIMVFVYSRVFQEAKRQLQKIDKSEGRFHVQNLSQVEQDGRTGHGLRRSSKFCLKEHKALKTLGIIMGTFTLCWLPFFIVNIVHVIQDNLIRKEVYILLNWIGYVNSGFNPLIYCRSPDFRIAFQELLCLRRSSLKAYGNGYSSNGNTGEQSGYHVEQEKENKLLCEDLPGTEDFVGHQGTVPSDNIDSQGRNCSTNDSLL

O=c1[nH]c2c(O)ccc([C@@H](O)CNCCSCCCNCCc3ccccc3Cl)c2s1 [Compound A, 7-[(1R)-2-({2-[(3-{[2-(2-Chlorophenyl)ethyl]amino}-propyl)thio]ethyl}amino)-1-hydroxyethyl]-4-hydroxy-1,3-benzothiazol-2(3H)-one dihydrobromide]
β2 Int Act: 0.8
